The data set is described as follows: Biodistribution / brain delivery of drug in mice after intravenous drug-loaded nanoparticles. The class given is in vivo. As to conditions: mouse, BMS, 12 mg/kg intravenously through tail vein in mice, HPLC, mean±SD (n=6), read-out: drug levels in the brain. As for the experimental part:
The brain delivery of BMS was assessed one hour following intravenous administration of brain lipid-coated nanoparticles in mice (FIG. 1). BMS in nanoparticles with or without brain-derived lipids or equivalent amount in solution (12 mg/kg) was injected intravenously in mice through tail vein, and drug levels in different tissues at the end of 1 hr was analyzed by HPLC. Data as mean±SD (n=6). * p<0.05. […] Data as mean±SD (n=4 and 3). * p<0.05.

Regarding `Cc1noc(NS(=O)(=O)c2cccc3c(N(C)C)cccc23)c1C` [solution control, BMS 182874], the concentration at 1 h turned out to be 2360 ± 580 ng/g.

(Values after patent publication US20100076092A1, “LIPID-DERIVED NANOPARTICLES FOR BRAIN-TARGETED DRUG DELIVERY” (priority 2006, published 2010).)
